Data: patent publication US8802700B2 (Vertex Pharmaceuticals Incorporated, priority 2010, dated 2014)

Biological target: T1, ΔF508-CFTR (Homo sapiens, UniProt P13569, DEL508-508)
T1 construct: expressed in transfected cells
Assay: Membrane potential optical assay (FRET voltage-sensor dyes, VIPR), identification of potentiator compounds
Format: cell-based
Settings: Table 3; assay not given
Outline: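 Potentiator screen measured membrane potential via FRET between CC2-DMPE donor and DiSBAC2(3), read on VIPR II. Compound went in with the first addition of chloride-free gluconate bath; cells were ΔF508-CFTR-expressing NIH3T3 mouse fibroblasts, temperature-corrected at 27 °C for 24 h.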

T1 sequence (P13569 with tags, fused parts or gaps DEL508-508): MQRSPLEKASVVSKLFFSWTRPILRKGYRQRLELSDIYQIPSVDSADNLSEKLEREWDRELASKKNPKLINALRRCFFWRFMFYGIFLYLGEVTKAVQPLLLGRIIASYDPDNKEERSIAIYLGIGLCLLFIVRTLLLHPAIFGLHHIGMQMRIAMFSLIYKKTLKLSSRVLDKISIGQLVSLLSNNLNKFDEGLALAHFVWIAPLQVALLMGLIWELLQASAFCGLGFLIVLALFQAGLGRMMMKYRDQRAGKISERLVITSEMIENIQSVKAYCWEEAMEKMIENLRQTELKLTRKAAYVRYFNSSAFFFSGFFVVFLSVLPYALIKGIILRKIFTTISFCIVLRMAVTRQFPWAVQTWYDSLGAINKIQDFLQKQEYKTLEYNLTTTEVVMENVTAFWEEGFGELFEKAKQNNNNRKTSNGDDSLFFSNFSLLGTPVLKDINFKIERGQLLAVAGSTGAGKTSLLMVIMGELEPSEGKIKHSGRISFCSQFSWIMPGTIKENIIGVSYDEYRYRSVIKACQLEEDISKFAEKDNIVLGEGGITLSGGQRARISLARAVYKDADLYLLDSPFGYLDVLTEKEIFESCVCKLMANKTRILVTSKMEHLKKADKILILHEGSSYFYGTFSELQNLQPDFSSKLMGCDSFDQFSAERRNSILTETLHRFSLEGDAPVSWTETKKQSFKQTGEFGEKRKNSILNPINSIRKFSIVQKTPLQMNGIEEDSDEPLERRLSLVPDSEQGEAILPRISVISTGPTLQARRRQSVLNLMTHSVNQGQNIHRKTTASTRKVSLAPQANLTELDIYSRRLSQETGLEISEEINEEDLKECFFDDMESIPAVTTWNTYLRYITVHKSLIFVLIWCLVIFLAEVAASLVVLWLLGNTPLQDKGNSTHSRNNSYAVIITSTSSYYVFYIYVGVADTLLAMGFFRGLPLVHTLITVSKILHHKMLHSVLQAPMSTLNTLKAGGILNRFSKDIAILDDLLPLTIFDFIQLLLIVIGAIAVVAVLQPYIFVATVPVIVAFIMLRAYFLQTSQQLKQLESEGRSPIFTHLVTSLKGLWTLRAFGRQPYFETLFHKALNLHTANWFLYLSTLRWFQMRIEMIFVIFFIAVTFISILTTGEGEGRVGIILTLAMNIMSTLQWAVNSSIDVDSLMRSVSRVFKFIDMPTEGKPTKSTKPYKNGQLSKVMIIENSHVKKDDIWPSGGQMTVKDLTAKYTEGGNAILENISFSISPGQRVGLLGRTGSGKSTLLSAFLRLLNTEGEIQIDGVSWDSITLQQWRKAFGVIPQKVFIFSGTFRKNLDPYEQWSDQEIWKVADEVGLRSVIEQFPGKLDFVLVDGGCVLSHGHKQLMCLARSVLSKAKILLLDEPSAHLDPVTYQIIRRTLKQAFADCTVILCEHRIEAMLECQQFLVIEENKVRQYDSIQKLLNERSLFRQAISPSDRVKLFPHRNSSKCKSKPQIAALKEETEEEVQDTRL

| EC50 | Compound |
| --- | --- |
| 10 to 25 µM | CC(=O)Nc1ccc(C(C)C)c(NC(=O)c2c[nH]c3ccccc3c2=O)c1 [Compound 243, N-(5-acetylamino-2-isopropyl-phenyl)-4-oxo-1H-quinoline-3-carboxamide] |
| < 10 µM | O=C(Nc1ccc(C2CCCCC2)cc1)c1c[nH]c2ccccc2c1=O [Compound 140, N-(4-cyclohexylphenyl)-4-oxo-1H-quinoline-3-carboxamide] |
| < 10 µM | CN(C)c1cc(NC(=O)c2c[nH]c3ccccc3c2=O)ccc1C(C)(C)C [Compound 485, N-(3-Dimethylamino-4-tert-butyl-phenyl)-4-oxo-1H-quinoline-3-carboxamide] |

Same assay, conditions: Table 3; assay not given; read-out: % Activity (% Efficacy, relative efficacy)

| Compound | Emax |
| --- | --- |
| CC1(c2ccc(NC(=O)c3c[nH]c4ccccc4c3=O)cc2)COC1 [Compound 523, N-[4-(3-methyloxetan-3-yl)phenyl]-4-oxo-1H-quinoline-3-carboxamide] | 25 to 100% |
| CC(=O)Nc1ccc(C(C)C)c(NC(=O)c2c[nH]c3ccccc3c2=O)c1 [Compound 243, N-(5-acetylamino-2-isopropyl-phenyl)-4-oxo-1H-quinoline-3-carboxamide] | 25 to 100% |
| CC1(C)CCNc2cc(NC(=O)c3c[nH]c4ccccc4c3=O)ccc21 [Compound 300, N-(4,4-Dimethyl-1,2,3,4-tetrahydroquinolin-7-yl)-4-oxo-1H-quinoline-3-carboxamide] | 25 to 100% |
| O=C(Nc1ccc2c3c([nH]c2c1)CCCC3)c1c[nH]c2ccccc2c1=O [Compound 244, 4-oxo-N-(6,7,8,9-tetrahydro-5H-carbazol-2-yl)-1H-quinoline-3-carboxamide] | 25 to 100% |
| O=C(Nc1cc2[nH]ccc2cc1-c1ccccc1)c1c[nH]c2ccccc2c1=O [Compound 158, 4-Oxo-N-(5-phenyl-1H-indol-6-yl)-1H-quinoline-3-carboxamide] | 25 to 100% |
| O=C(Nc1ccc(C2CCCCC2)cc1)c1c[nH]c2ccccc2c1=O [Compound 140, N-(4-cyclohexylphenyl)-4-oxo-1H-quinoline-3-carboxamide] | 25 to 100% |
| CCOc1cc(NC(=O)c2c[nH]c3ccccc3c2=O)c(OCC)cc1NC(=O)c1ccccc1 [Compound 7, N-(4-benzoylamino-2,5-diethoxy-phenyl)-4-oxo-1H-quinoline-3-carboxamide] | < 25% |
| N#Cc1cc(Cl)cc(Cl)c1NC(=O)c1c[nH]c2ccccc2c1=O [Compound 369, N-(2,4-dichloro-6-cyano-phenyl)-4-oxo-1H-quinoline-3-carboxamide] | < 25% |
| O=C(Nc1ccccc1-c1ccccc1F)c1c[nH]c2ccccc2c1=O [Compound 313, N-[2-(2-fluorophenyl)phenyl]-4-oxo-1H-quinoline-3-carboxamide] | 25 to 100% |
| COc1c(N)cc(C(C)(C)C)cc1NC(=O)c1c[nH]c2ccccc2c1=O [Compound 55, N-(3-amino-2-methoxy-5-tert-butyl-phenyl)-4-oxo-1H-quinoline-3-carboxamide] | < 25% |
| CC(=O)N1CCC2(CCN(C(=O)OC(C)(C)C)CC2)c2ccc(NC(=O)c3c[nH]c4ccccc4c3=O)cc21 [Compound 334, 7′-[(4-oxo-1H-quinolin-3-ylcarbonyl)amino]-spiro[piperidine-4,4′(1′H)-1-acetyl-quinoline], 2′,3′-dihydro-carboxylic acid tert-butyl ester] | 25 to 100% |
| CCc1cccc(C)c1NC(=O)c1c[nH]c2ccccc2c1=O [Compound 180, N-(2-ethyl-6-methyl-phenyl)-4-oxo-1H-quinoline-3-carboxamide] | 25 to 100% |
| CC(C)OC(=O)c1cccc(-c2ccccc2NC(=O)c2c[nH]c3ccccc3c2=O)c1 [Compound 71, 3-[2-[(4-oxo-1H-quinolin-3-yl)carbonylamino]phenyl]benzoic acid isopropyl ester] | 25 to 100% |
| O=C(Nc1ccc2cc[nH]c2c1)c1cnc2ccc(Cl)cc2c1O [Compound 358, 6-chloro-4-hydroxy-N-(1H-indol-6-yl)quinoline-3-carboxamide] | 25 to 100% |
| CN(C)c1cc(NC(=O)c2c[nH]c3ccccc3c2=O)ccc1C(C)(C)C [Compound 485, N-(3-Dimethylamino-4-tert-butyl-phenyl)-4-oxo-1H-quinoline-3-carboxamide] | 25 to 100% |
| O=C(Nc1ccc2oc(-c3ccccc3)nc2c1)c1c[nH]c2ccccc2c1=O [Compound 376, 4-oxo-N-(2-phenylbenzooxazol-5-yl)-1H-quinoline-3-carboxamide] | < 25% |
| CC(C)(C)c1cc(C(C)(C)C)c(NC(=O)c2c[nH]c3c(F)ccc(F)c3c2=O)cc1O [Compound 718, 5,8-difluoro-N-(5-hydroxy-2,4-ditert-butyl-phenyl)-4-oxo-1H-quinoline-3-carboxamide] | 25 to 100% |
| O=C(Nc1ccccc1-c1ccc(Oc2ccccc2)cc1)c1c[nH]c2ccccc2c1=O [Compound 410, 4-oxo-N-[2-(4-phenoxyphenyl)phenyl]-1H-quinoline-3-carboxamide] | > 100% |
| CC(C)c1cccc(-c2ccccc2NC(=O)c2c[nH]c3ccccc3c2=O)c1 [Compound 290, N-[2-(3-isopropylphenyl)phenyl]-4-oxo-1H-quinoline-3-carboxamide] | 25 to 100% |
| O=C(Nc1ccc(F)cc1)c1c[nH]c2ccccc2c1=O [Compound 198, N-(4-fluorophenyl)-4-oxo-1H-quinoline-3-carboxamide] | 25 to 100% |
| CC(C)(C)c1cc(C(C)(C)C)c(NC(=O)c2c[nH]c3ccccc3c2=O)c(O)c1O [Compound 220, N-(2,3-dihydroxy-4,6-ditert-butyl-phenyl)-4-oxo-1H-quinoline-3-carboxamide] | 25 to 100% |
| COc1ccc(-c2ccccc2NC(=O)c2c[nH]c3ccccc3c2=O)c(OC)c1 [Compound 312, N-[2-(2,4-dimethoxyphenyl)phenyl]-4-oxo-1H-quinoline-3-carboxamide] | 25 to 100% |
| O=C(Nc1ccc2c(c1)OC(F)(F)O2)c1c[nH]c2ccccc2c1=O [Compound 66, N-(2,2-difluorobenzo[1,3]dioxol-5-yl)-4-oxo-1H-quinoline-3-carboxamide] | 25 to 100% |
| O=C(Nc1ccc2cc[nH]c2c1)c1cnc2c(F)cc(F)cc2c1O [Compound 377, 6,8-difluoro-4-hydroxy-N-(1H-indol-6-yl)quinoline-3-carboxamide] | 25 to 100% |
| O=C(Nc1ccccc1-c1ccc(F)c(F)c1)c1c[nH]c2ccccc2c1=O [Compound 76, N-[2-(3,4-difluorophenyl)phenyl]-4-oxo-1H-quinoline-3-carboxamide] | 25 to 100% |

Results, then the molecule that gave them:

| Emax | Compound |
| --- | --- |
| > 100% | CC1(c2cc(F)c(NC(=O)c3c[nH]c4cccc(C(F)(F)F)c4c3=O)cc2O)CCCCC1 [Compound 706, N-[2-fluoro-5-hydroxy-4-(1-methylcyclohexyl)-phenyl]-4-oxo-5-(trifluoromethyl)-1H-quinoline-3-carboxamide] |
| 25 to 100% | CC(C)(C)c1cc2cc[nH]c2cc1NC(=O)c1c[nH]c2cc(F)c(F)cc2c1=O [Compound 646, 6,7-difluoro-4-oxo-N-(5-tert-butyl-1H-indol-6-yl)-1H-quinoline-3-carboxamide] |
| > 100% | CC(C)(C)OC(=O)[C@H]1CCCN1c1ccc(NC(=O)c2c[nH]c3ccccc3c2=O)c(C(F)(F)F)c1 [Compound 540, (R)-tert-butyl 1-(4-(4-oxo-1,4-dihydroquinoline-3-carboxamido)-3-(trifluoromethyl)phenyl)pyrrolidine-2-carboxylate] |
| 25 to 100% | O=C(Nc1cc2[nH]ccc2cc1C(F)(F)F)c1c[nH]c2ccccc2c1=O [Compound 234, 4-oxo-N-[5-(trifluoromethyl)-1H-indol-6-yl]-1H-quinoline-3-carboxamide] |
| 25 to 100% | Cc1cccc2[nH]cc(C(=O)Nc3ccc(N4C[C@@H]5CC[C@H]4C5)cc3C(F)(F)F)c(=O)c12 [Compound 582, N-(4-((1S,4R)-2-azabicyclo[2.2.1]heptan-2-yl)-2-(trifluoromethyl)phenyl)-5-methyl-4-oxo-1,4-dihydroquinoline-3-carboxamide] |
| 25 to 100% | CCOC(=O)Nc1cc(NC(=O)c2c[nH]c3ccccc3c2=O)ccc1C(C)(C)C [Compound 127, [5-[(4-oxo-1H-quinolin-3-yl)carbonylamino]-2-tert-butyl-phenyl]aminoformic acid ethyl ester] |
| 25 to 100% | Cc1cccc2[nH]cc(C(=O)Nc3ccc(N4CCC[C@@H]4C)cc3C(F)(F)F)c(=O)c12 [Compound 511, (S)-5-methyl-N-(4-(2-methylpyrrolidin-1-yl)-2-(trifluoromethyl)phenyl)-4-oxo-1,4-dihydroquinoline-3-carboxamide] |
| 25 to 100% | COc1ccc2c(=O)c(C(=O)Nc3ccc(N4CCC[C@@H]4C)cc3C(F)(F)F)c[nH]c2c1 [Compound 642, (S)-7-methoxy-N-(4-(2-methylpyrrolidin-1-yl)-2-(trifluoromethyl)phenyl)-4-oxo-1,4-dihydroquinoline-3-carboxamide] |
| 25 to 100% | CC(C)(C)c1ccc(NC(=O)c2c[nH]c3ccccc3c2=O)cc1N1CCCC1 [Compound 707, 4-oxo-N-(3-pyrrolidin-1-yl-4-tert-butyl-phenyl)-1H-quinoline-3-carboxamide] |
| 25 to 100% | Cc1ccc2c(=O)c(C(=O)Nc3cc(O)c(C4(C)CCCCC4)cc3F)c[nH]c2c1 [Compound 499, N-[2-fluoro-5-hydroxy-4-(1-methylcyclohexyl)-phenyl]-7-methyl-4-oxo-1H-quinoline-3-carboxamide] |
| 25 to 100% | N#Cc1cc(N2CCCC2)ccc1NC(=O)c1c[nH]c2ccccc2c1=O [Compound 622, N-(2-cyano-4-pyrrolidin-1-yl-phenyl)-4-oxo-1H-quinoline-3-carboxamide] |
| 25 to 100% | CC(C)(C)c1ccc(NC(=O)c2c[nH]c3ccccc3c2=O)c(Cl)c1 [Compound 362, N-(2-chloro-4-tert-butyl-phenyl)-4-oxo-1H-quinoline-3-carboxamide] |
| > 100% | Cc1cccc2[nH]cc(C(=O)Nc3ccc(OC(C)C)cc3C(F)(F)F)c(=O)c12 [Compound 547, N-[4-isopropoxy-2-(trifluoromethyl)phenyl]-5-methyl-4-oxo-1H-quinoline-3-carboxamide] |
| 25 to 100% | Cc1ccc2c(=O)c(C(=O)Nc3ccc(N4CCC[C@@H]4C)cc3C(F)(F)F)c[nH]c2c1 [Compound 607, (S)-7-methyl-N-(4-(2-methylpyrrolidin-1-yl)-2-(trifluoromethyl)phenyl)-4-oxo-1,4-dihydroquinoline-3-carboxamide] |
| 25 to 100% | CCN(CC)c1ccc(NC(=O)c2c[nH]c3ccccc3c2=O)c(C)c1 [Compound 82, N-(4-diethylamino-2-methyl-phenyl)-4-oxo-1H-quinoline-3-carboxamide] |
